Test results reported in patent publication US20240383898A1, “PYRIDO RING COMPOUND, PREPARATION METHOD THEREFOR, INTERMEDIATE, COMPOSITION, AND APPLICATION” (YIYOU BIOTECH (SHANGHAI) CO., LTD, priority 2021, published 2024).

Experiments:
JAK2 = target: T1, JAK2 (Homo sapiens, UniProt O60674); experiment: In vitro activity test of JAK2 kinase (Caliper EZ Reader conversion assay); format: biochemical; conditions: enzyme activity, 10 concentrations from 1000 nM, 3-fold dilution
T1 construct: purchased Carna 08-045
T1 sequence (O60674 whole entry, species assumed): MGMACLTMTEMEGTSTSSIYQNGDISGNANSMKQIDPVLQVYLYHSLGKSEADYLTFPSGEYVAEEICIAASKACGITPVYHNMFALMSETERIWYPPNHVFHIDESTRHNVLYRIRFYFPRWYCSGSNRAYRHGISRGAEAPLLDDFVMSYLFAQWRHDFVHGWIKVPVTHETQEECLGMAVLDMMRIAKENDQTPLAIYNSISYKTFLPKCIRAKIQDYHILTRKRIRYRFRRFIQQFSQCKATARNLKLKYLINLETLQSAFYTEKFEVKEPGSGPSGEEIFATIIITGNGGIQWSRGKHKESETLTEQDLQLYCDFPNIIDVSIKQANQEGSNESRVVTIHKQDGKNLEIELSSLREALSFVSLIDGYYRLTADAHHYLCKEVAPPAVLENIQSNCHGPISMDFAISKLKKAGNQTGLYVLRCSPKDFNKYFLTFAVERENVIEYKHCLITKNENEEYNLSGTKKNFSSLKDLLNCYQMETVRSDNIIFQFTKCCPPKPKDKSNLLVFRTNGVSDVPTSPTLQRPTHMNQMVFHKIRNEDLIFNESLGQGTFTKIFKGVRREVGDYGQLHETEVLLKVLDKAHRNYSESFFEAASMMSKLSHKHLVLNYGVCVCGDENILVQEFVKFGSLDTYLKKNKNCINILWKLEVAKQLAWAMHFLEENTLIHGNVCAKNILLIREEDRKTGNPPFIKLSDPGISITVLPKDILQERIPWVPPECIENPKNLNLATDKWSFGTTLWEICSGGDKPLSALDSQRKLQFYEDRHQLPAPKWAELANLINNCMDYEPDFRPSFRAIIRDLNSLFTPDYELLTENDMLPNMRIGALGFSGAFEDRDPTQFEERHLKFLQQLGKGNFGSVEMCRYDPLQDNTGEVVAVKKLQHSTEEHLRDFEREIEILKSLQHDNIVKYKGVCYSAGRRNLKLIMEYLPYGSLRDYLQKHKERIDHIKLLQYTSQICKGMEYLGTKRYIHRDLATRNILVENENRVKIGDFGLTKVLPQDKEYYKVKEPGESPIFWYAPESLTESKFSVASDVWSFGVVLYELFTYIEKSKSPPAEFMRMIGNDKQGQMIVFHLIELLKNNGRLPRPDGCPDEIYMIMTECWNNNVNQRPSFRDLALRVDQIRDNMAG
Method: (§1) In Vitro Activity Test of JAK1 and JAK2 Kinases
(§2) • Centrifuge (manufacturer: Eppendorf, model: 5430) • ELISA Instrument (Manufacturer: Perkin Elmer, Model: Caliper EZ Reader 1I) • Echo 550 (Manufacturer: Labcyte, Model: Echo 550)
(§3) (1) Prepare 1 Kinase buffer.
(§4) (2) Compound concentration gradient preparation: The test compound was tested at 1000 nM, 3-fold dilution, 10 concentrations, two-well assay, and configured to a 100-fold final concentration in a 384-well plate. 250 nl of the test compound was then transferred to the 384 reaction plate using Echo550. 250 nl of 100% DMSO was added to each of the negative and positive control wells.
(§5) (3) Prepare 2.5 times the final concentration of kinase solution with 1×Kinase buffer.
(§6) (4) Add 10 μL of 2.5 times the final concentration of kinase solution to the compound wells and 10 μL of 1×Kinase buffer to the negative control wells.
(§7) (5) Centrifuge at 1000 rpm for 30 seconds, mix well with shaking, and incubate at room temperature for 10 minutes.
(§8) (6) Prepare a 25/15-fold final concentration of mixture of ATP and Kinase substrate with 1×Kinase buffer.
(§9) (7) Add 15 μL of a mixture of 25/15 times the final concentration of ATP and substrate to start the reaction.
(§10) (8) Centrifuge the 384-well plate at 1000 rpm for 30 seconds, mix well with shaking, and incubate at room temperature for an appropriate amount of time.
(§11) (9) Stop the kinase reaction by adding 30 μL of termination solution, centrifuge at 1000 rpm for 30 seconds, and mix well with shaking.
(§12) (10) Read the conversion rate with Caliper EZ Reader.
(§13) where: Conversion %_sample is the conversion rate reading of the sample-, Conversion %_min: the average value of the negative control wells, representing the conversion reading of the wells without enzyme activity: Conversion %-max: the average value of the positive control wells, representing the conversion reading of the wells without compound inhibition.
(§14) The log value of concentration was used as the X-axis and the percentage inhibition as the Y-axis, and the function of the analytical software GraphPad Prism 5; log(inhibitor) vs. response -Variable slope, was used to lit dose-effect curves to obtain the IC50) values of each compound on enzyme activity.
(§15) The formula is Y=Bottom+(Top-Bottom)/(1+10^((LogIC50-X)*HillSlope))
(§16) The 1C50 data are specified in Table 1.

JAK1 = target: T2, JAK1 (Homo sapiens, UniProt P23458); experiment: In vitro activity test of JAK1 kinase (Caliper EZ Reader conversion assay); format: biochemical; conditions: enzyme activity, 10 concentrations from 1000 nM, 3-fold dilution
T2 construct: purchased Carna 08-114
T2 sequence (P23458 whole entry, species assumed): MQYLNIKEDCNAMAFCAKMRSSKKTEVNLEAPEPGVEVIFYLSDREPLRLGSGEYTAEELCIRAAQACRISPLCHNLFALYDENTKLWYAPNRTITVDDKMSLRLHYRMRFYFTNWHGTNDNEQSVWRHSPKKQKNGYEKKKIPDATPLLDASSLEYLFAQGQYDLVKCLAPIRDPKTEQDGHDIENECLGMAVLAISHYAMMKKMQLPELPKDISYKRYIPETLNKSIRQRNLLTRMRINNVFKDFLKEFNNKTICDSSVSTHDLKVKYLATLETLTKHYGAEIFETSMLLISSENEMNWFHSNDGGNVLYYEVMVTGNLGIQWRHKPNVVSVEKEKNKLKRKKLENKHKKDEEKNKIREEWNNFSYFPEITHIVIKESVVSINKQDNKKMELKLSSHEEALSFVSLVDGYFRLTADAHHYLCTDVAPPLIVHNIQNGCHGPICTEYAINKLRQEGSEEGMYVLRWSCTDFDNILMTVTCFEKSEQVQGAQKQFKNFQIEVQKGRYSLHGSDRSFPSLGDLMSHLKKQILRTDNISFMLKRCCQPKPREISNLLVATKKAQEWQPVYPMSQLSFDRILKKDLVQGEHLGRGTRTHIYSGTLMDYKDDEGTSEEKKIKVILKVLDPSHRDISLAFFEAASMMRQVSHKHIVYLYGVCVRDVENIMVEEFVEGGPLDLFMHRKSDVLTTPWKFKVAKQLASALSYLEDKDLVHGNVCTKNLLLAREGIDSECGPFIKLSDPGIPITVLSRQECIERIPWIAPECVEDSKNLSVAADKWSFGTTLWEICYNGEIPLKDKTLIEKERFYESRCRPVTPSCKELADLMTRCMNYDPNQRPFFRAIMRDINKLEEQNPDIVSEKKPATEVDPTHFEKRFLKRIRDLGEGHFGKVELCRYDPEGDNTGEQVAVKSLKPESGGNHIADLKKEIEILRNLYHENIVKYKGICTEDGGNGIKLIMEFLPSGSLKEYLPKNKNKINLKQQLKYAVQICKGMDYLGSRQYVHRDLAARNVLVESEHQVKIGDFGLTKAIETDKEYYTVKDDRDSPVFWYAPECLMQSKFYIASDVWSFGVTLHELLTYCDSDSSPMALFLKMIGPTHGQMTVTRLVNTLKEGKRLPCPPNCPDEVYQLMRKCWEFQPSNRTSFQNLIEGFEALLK
Method: as §1, §2, §3, §4, §5, §6, §7, §8, §9, §10, §11, §12, §13, §14, §15, §16

C[C@@H](O)c1nc2cnc3[nH]ccc3c2n1C1CCN(C(=O)NCC(F)(F)F)C1 (stereo in doubt) [LXS20, (R)-3-(2-((R)-1-Hydroxyethyl)imidazo[4,5-d]pyrrolo[2,3-b]pyridin-1(6H)-yl)-N-(2,2,2-trifluoroethyl)pyrrolidine-1-carboxamide]
IC50 (JAK2): 100 to 1000 nM | IC50 (JAK1): 100 to 1000 nM

CCCS(=O)(=O)N1CCC(n2c([C@@H](C)O)nc3cnc4[nH]ccc4c32)C1 (stereo in doubt) [LXS21, (R)-1-(1-((R)-1-(Propylsulfonyl)pyrrolidin-3-yl)-1,6-dihydroimidazo[4,5-d]pyrrolo[2,3-b]pyridin-2-yl)ethanol]
IC50 (JAK2): 100 to 1000 nM | IC50 (JAK1): 100 to 1000 nM

N#C[C@H]1CC[C@H](n2c(-c3ccc(CO)o3)nc3cnc4[nH]ccc4c32)CC1 (stereo in doubt) [LXS22, trans-4-(2-(5-(hydroxymethyl)furan-2-yl)imidazo[4,5-d]pyrrolo[2,3-b]pyridin-1(6H)-yl)cyclohexanecarbonitrile]
IC50 (JAK2): 10 to 100 nM | IC50 (JAK1): 10 to 100 nM

O=C(NCC(F)(F)F)N1CCC(n2c(-c3ccc(CO)o3)nc3cnc4[nH]ccc4c32)C1 (stereo in doubt) [LXS23, (R)-3-(2-(5-(hydroxymethyl)furan-2-yl)imidazo[4,5-d]pyrrolo[2,3-b]pyridin-1(6H)-yl)-N-(2,2,2-trifluoroethyl)pyrrolidine-1-carboxamide]
IC50 (JAK2): 100 to 1000 nM | IC50 (JAK1): 100 to 1000 nM

O=C(NCC(F)(F)F)N1CCC(n2c(-c3ncc[nH]3)nc3cnc4[nH]ccc4c32)C1 (stereo in doubt) [LXS24, (R)-3-(2-(1H-imidazol-2-yl)imidazo[4,5-d]pyrrolo[2,3-b]pyridin-1(6H)-yl)-N-(2,2,2-trifluoroethyl)pyrrolidine-1-carboxamide]
IC50 (JAK2): 100 to 1000 nM | IC50 (JAK1): 100 to 1000 nM

C=CC(=O)N1CCC(n2c(-c3ncc[nH]3)nc3cnc4[nH]ccc4c32)C1 (stereo in doubt) [LXS25, (R)-1-(3-(2-(1H-imidazol-2-yl)imidazo[4,5-d]pyrrolo[2,3-b]pyridin-1(6H)-yl)pyrrolidin-1-yl)prop-2-en-1-one]
IC50 (JAK2): 100 to 1000 nM | IC50 (JAK1): 100 to 1000 nM

Cc1ncc(-c2nc3cnc4[nH]ccc4c3n2C2CCC(C#N)CC2)s1 (stereo in doubt) [LXS26, trans-4-(2-(2-Methylthiazol-5-yl)imidazo[4,5-d]pyrrolo[2,3-b]pyridin-1(6H)-yl)cyclohexanecarbonitrile]
IC50 (JAK2): 10 to 100 nM | IC50 (JAK1): 10 to 100 nM

N#C[C@H]1CC[C@H](n2c(-c3cnc(N)s3)nc3cnc4[nH]ccc4c32)CC1 (stereo in doubt) [LXS27, trans-4-(2-(2-Aminothiazol-5-yl)imidazo[4,5-d]pyrrolo[2,3-b]pyridin-1(6H)-yl)cyclohexanecarbonitrile]
IC50 (JAK2): 10 to 100 nM | IC50 (JAK1): 10 to 100 nM

Cc1ccc(-c2nc3cnc4[nH]ccc4c3n2C2CCC(C#N)CC2)s1 (stereo in doubt) [LXS28, trans-4-(2-(2-Methylthiophen-5-yl)imidazo[4,5-d]pyrrolo[2,3-b]pyridin-1(6H)-yl)cyclohexanecarbonitrile]
IC50 (JAK2): 10 to 100 nM | IC50 (JAK1): 10 to 100 nM

Cc1ccc(-c2nc3cnc4[nH]ccc4c3n2C2CCC(C#N)CC2)o1 (stereo in doubt) [LXS29, trans-4-(2-(2-Methylfuran-5-yl)imidazo[4,5-d]pyrrolo[2,3-b]pyridin-1(6H)-yl)cyclohexanecarbonitrile]
IC50 (JAK2): 10 to 100 nM | IC50 (JAK1): 10 to 100 nM

CCCS(=O)(=O)N1CC(CC#N)(n2cc(-n3c(-c4ccc(CO)o4)nc4cnc5[nH]ccc5c43)cn2)C1 [LXS14, 2-(1-(propylsulfonyl)-3-(4-(2-(5-(hydroxymethyl)furan-2-yl)imidazo[4,5-d]pyrrolo[2,3-b]pyridin-1(6H)-yl)-1H-pyrazol-1-yl)azetidin-3-yl)acetonitrile]
IC50 (JAK1): 100 to 1000 nM

Cc1ccc(-c2nc3cnc4[nH]ccc4c3n2-c2cnn(CCC#N)c2)s1 [LXS84, 3-(4-(2-(5-Methylthiophen-2-yl)imidazo[4,5-d]pyrrolo[2,3-b]pyridin-1(6H)-yl)-1H-pyrazol-1-yl)propanenitrile]
IC50 (JAK1): 10 to 100 nM
